Earlier results in patent US7834030B2, “Phenyl-[1,2,4]-oxadiazol-5-one derivatives, pharmaceutical compositions and therapeutic use thereof” (Sanofi-Aventis, priority 2005, dated 2010).
Read-outs that look alike come from different tables or passages of the source.

What was measured:
[1] = diabetic animal model; cited from earlier work
[2] = obese, insulin resistant rhesus monkeys; cited from earlier work
[3] = rhesus monkeys; cited from earlier work
[4] = healthy volunteers, two weeks clinical trials; cited from earlier work
[5] = cynomolgus monkeys; cited from earlier work

In the case of `CCCc1c(OCCCOc2ccc(OCC(=O)O)cc2)ccc(C(C)=O)c1O` [Example L-165041], the plasma cholesterol [1] is given as “raises plasma cholesterol”.
In the case of `Cc1cc(SCc2sc(-c3ccc(C(F)(F)F)cc3)nc2C)ccc1OCC(=O)O` [GW501516], the HDL-cholesterol [2] is listed as “raises”, the insulin levels [2] is listed as “decreases” and the “plasma LDL-cholesterol” value [2] is listed as “decreases”. The triglycerides [2] was “decreases”.
For `CCCc1c(OCCCSc2nnc(SCC(=O)O)s2)ccc(C(C)=O)c1O` [YM-16638], the plasma lipids [3] is given as “significantly lowers”, the plasma lipids [4] is given as “acts in a similar manner” and the plasma lipids [5] is given as “significantly lowers”.
